Target: T1, Tyrosine-protein phosphatase non-receptor type 7 (Homo sapiens, UniProt P35236)
T1 sequence (P35236 whole entry): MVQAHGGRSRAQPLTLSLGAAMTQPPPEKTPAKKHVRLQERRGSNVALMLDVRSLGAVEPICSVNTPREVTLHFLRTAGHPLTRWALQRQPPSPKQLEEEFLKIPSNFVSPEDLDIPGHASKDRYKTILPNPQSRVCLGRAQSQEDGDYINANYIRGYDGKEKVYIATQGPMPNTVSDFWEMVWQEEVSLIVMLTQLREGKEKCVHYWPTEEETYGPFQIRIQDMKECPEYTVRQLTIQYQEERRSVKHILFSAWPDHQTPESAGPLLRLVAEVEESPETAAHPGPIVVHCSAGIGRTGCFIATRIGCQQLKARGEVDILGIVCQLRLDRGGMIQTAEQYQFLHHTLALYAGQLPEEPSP
Assay: HePTP phosphatase inhibitors, dose response, biochemical, fluorescence, OMFP substrate, HTS hits, set 2 (AID 435032)

`N=C(NN=Cc1ccc2c(c1)OCO2)Sc1cc(O)n(-c2ccc(C(=O)O)cc2)c1O` [4-(3-{[[(2E)-2-(1,3-benzodioxol-5-ylmethylene)hydrazino](imino)methyl]thio}-2,5-dioxopyrrolidin-1-yl)benzoic acid] gave an IC50 of 7.33 µM.

`Cc1ccc(NN=C2C(=O)N(CN3CCOCC3)c3ccccc32)cc1` [(3Z)-3-[(4-methylphenyl)hydrazinylidene]-1-(4-morpholinylmethyl)-2-indolone] was tested, and the IC50 was > 79.4 µM.

In the case of `O=C1C([N+](=O)[O-])=CC(Br)=CC1/C=N/n1cnnc1` (stereo not given) [MLS000714804], the IC50 is reported as > 79.4 µM.

Work on `COC1=CC=CC(/C=N/NC(=O)c2cc3cc([N+](=O)[O-])ccc3s2)C1=O` (stereo not given) [SMR000237814] yielded an IC50 of 14.9 µM.

`CCOC(=O)NC(=O)C(C=Nc1ccc(C)cc1)C(=O)NC(=O)OCC` [ethyl 2-{[(ethoxycarbonyl)amino]carbonyl}-3-(4-toluidino)acryloylcarbamate] was tested, and the IC50 was > 79.4 µM.
